Data as given in patent publication US7727988B2, “Azabicyclo[3.1.0]hex-3-yl}alkyl)pyrimidinedione” (Glaxo Group Limited, priority 2006, dated 2010).
Structures can show the parent of a compound that is named as a salt.

Biological target: T1, dopamine D2 receptor (Homo sapiens, UniProt P14416)
T1 construct: expressed in transfected cells; host or cells: Chinese Hamster Ovary (CHO) cells, membranes
Assay: GTPS scintillation proximity assay (GTPS-SPA), CHO_D2 membranes
Type: biochemical
Settings: up to the highest concentration tested in the assay (3 μM)
Experimental: Functional potency of compounds of this invention can be measured by the following GTPS scintillation proximity assay (GTPS-SPA). Cells used in the study are Chinese Hamster Ovary (CHO) Cells. • Cell Line • CHO_D2 • CHO_D3 • Dopamine CHO D3 (Biocat no 1060) transduced with bacmam G0 G-protein (Biocat no 97886)
All steps are performed at 4° C. Cell membranes are prepared as follows. Cell pellets are resuspended in 10 volumes of 50 mM HEPES, 1 mM EDTA pH 7.4, using KOH. Cells are homogenised within a glass waring blender for 2 bursts of 15 secs in 200 mls of buffer (50 mM HEPES, 1 mM leupeptin, 25 μg/ml bacitracin, 1 mM EDTA, 1 mM PMSF, 2 μM Pepstatin A). (the latter 2 reagents added as fresh ×100 and ×500 stocks respectively in ethanol). The blender is plunged into ice for 5 mins after the first burst and 10-40 mins after the final burst to allow foam to dissipate. The material is then spun at 500 g for 20 mins and the supernatant spun for 36 mins at 48.000 g. The pellet is resuspended in the same buffer as above but without PMSF and Pepstatin A. The material is then forced through a 0.6 mm needle, made up to the required volume, (usually ×4 the volume of the original cell pellet), aliquoted and stored frozen at −80° C.
The final top concentration of test drug is 3 μM in the assay and 11 points serial dilution curves 1:4 in 100% DMSO are carried out using a Biomek FX. The test drug at 1% (0.5 ul) total assay volume (TAV) is added to a solid, white Greiner polypropylene 384-well assay plate. 50% TAV (25 μl) of precoupled (for 60 mins at RT) membranes, 5 μg/well, and Wheatgerm Agglutinin Polystyrene Scintillation Proximity Assay beads (RPNQ0260, Amersham), 0.25 mg/well, in 20 mM HEPES (pH 7.4, 100 mM NaCl, 10 mM MgCl2), 60 μg/mL saponin and 30 uM GDP is added. The third addition is a 20% TAV (10 ul) addition of either buffer, (agonist format) or EC80 final assay concentration of agonist, Quinelorane, prepared in assay buffer (antagonist format). The assay is started by the addition of 29% TAV (15 ul) of GTP[35S] 0.38 nM final (37 MBq/mL, 1160 Ci/mmol, Amersham). After all additions assay plates are spun down for 1 min at 1,000 rpm. The final assay cocktail ([…]) is incubated at room temperature to equilibrate for 3-6 hours before reading on a ViewLux™ (613/55 filter) luminescence imager 5 min/plate.
The effect of the test drug over the basal generates fpKi values of test drug are calculated from the IC50 generated by “antagonist format” experiment, using Cheng & Prusoff equation: fKi=IC50/1+([A]/EC50) where: [A] is the concentration of the agonist Quinelorane in the assay and EC50 is the Quinelorane EC50 value obtained in the same experiment. fpKi is defined as −logfKi. • pKi results are only estimated to be accurate to about 0.3-0.5.

T1 sequence (P14416 whole entry): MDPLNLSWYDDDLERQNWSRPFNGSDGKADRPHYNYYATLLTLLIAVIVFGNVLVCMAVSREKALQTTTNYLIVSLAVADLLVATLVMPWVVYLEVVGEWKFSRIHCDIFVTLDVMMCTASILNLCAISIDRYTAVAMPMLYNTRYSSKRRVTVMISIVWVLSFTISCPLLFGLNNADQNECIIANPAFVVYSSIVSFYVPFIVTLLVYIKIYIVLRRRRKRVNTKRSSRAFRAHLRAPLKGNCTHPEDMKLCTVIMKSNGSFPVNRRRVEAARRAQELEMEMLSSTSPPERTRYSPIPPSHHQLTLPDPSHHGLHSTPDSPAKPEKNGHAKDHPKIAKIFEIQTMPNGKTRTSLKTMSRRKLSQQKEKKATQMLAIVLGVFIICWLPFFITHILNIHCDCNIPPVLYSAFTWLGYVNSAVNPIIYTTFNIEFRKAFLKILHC

Row | activity in the D2 GTPS-SPA assay | Compound
1 | no activity | Cc1cc(-c2cn(CCCN3C[C@@H]4C[C@]4(c4ccc(C(F)(F)F)cc4)C3)c(=O)[nH]c2=O)ccn1.Cl [Example E23, 5-(2-methyl-4-pyridinyl)-1-(3-{(1S,5R)-1-[4-(trifluoromethyl)phenyl]-3-azabicyclo[3.1.0]hex-3-yl}propyl)-2,4(1H,3H)-pyrimidinedione hydrochloride]
2 | no activity | Cl.O=c1[nH]c(=S)ccn1CCCCN1C[C@@H]2C[C@]2(c2ccc(C(F)(F)F)cc2)C1 [Example E33, 4-thioxo-1-(4-{(1S,5R)-1-[4-(trifluoromethyl)phenyl]-3-azabicyclo[3.1.0]hex-3-yl}butyl)-3,4-dihydro-2(1H)-pyrimidinone hydrochloride]
3 | no activity | Cc1ncccc1-c1cn(CCCN2C[C@@H]3C[C@]3(c3ccc(C(F)(F)F)cc3)C2)c(=O)[nH]c1=O.Cl.Cl [Example E19, 5-(2-methyl-3-pyridinyl)-1-(3-{(1S,5R)-1-[4-(trifluoromethyl)phenyl]-3-azabicyclo[3.1.0]hex-3-yl}propyl)-2,4(1H,3H)-pyrimidinedione dihydrochloride]
4 | no activity | O=c1[nH]c(=O)n(CCCN2CC3C[C@]3(c3ccc(C(F)(F)F)cc3)C2)cc1-c1cccc(C(F)(F)F)n1 (some centres unmarked) [Example E38, dihydrochloride]
5 | no activity | Cc1nc(C)c(-c2cn(CCCCN3C[C@@H]4C[C@]4(c4ccc(C(F)(F)F)cc4)C3)c(=O)[nH]c2=O)o1.Cl [Example E42, 5-(2,4-dimethyl-1,3-oxazol-5-yl)-1-(4-{(1S,5R)-1-[4-(trifluoromethyl)phenyl]-3-azabicyclo[3.1.0]hex-3-yl}butyl)-2,4(1H,3H)-pyrimidinedione hydrochloride]
6 | no activity | Cc1cc(F)ccc1-c1cn(CCCN2C[C@@H]3C[C@]3(c3ccc(C(F)(F)F)cc3)C2)c(=O)[nH]c1=O [Example E51, 5-(4-fluoro-2-methylphenyl)-1-(3-{(1S,5R)-1-[4-(trifluoromethyl)phenyl]-3-azabicyclo[3.1.0]hex-3-yl}propyl)-2,4(1H,3H)-pyrimidinedione]
7 | no activity | Cl.Cl.N#Cc1cccc(-c2cn(CCCN3C[C@@H]4C[C@]4(c4ccc(C(F)(F)F)cc4)C3)c(=O)[nH]c2=O)n1 [Example E47, 6-[2,4-dioxo-1-(3-{(1S,5R)-1-[4-(trifluoromethyl)phenyl]-3-azabicyclo[3.1.0]hex-3-yl}propyl)-1,2,3,4-tetrahydro-5-pyrimidinyl]-2-pyridinecarbonitrile dihydrochloride]
8 | no activity | Cc1cccc(-c2cn(CCCCN3C[C@@H]4C[C@]4(c4ccc(C(F)(F)F)cc4)C3)c(=O)[nH]c2=O)n1.Cl.Cl [Example E32, 5-(6-methyl-2-pyridinyl)-1-(4-{(1S,5R)-1-[4-(trifluoromethyl)phenyl]-3-azabicyclo[3.1.0]hex-3-yl}butyl)-2,4(1H,3H)-pyrimidinedione dihydrochloride]
9 | no activity | Cl.O=c1ccn(CCCCN2C[C@@H]3C[C@]3(c3ccc(C(F)(F)F)cc3)C2)c(=O)[nH]1 [Example E5, 1-(4-{(1S,5R)-1-[4-(trifluoromethyl)phenyl]-3-azabicyclo[3.1.0]hex-3-yl}butyl)-2,4(1H,3H)-pyrimidinedione hydrochloride]
10 | no activity | O=c1[nH]c(=O)n(CCCN2C[C@@H]3C[C@]3(c3ccc(C(F)(F)F)cc3)C2)cc1-c1ccc(Cl)nc1 [Example E59, 5-(6-chloro-3-pyridinyl)-1-(3-{(1S,5R)-1-[4-(trifluoromethyl)phenyl]-3-azabicyclo[3.1.0]hex-3-yl}propyl)-2,4(1H,3H)-pyrimidinedione dihydrochloride]
11 | no activity | Cl.Cl.O=c1[nH]c(=O)n(CCCN2C[C@@H]3C[C@]3(c3ccc(C(F)(F)F)cc3)C2)cc1-c1ccncc1 [Example E24, 5-(4-pyridinyl)-1-(3-{(1S,5R)-1-[4-(trifluoromethyl)phenyl]-3-azabicyclo[3.1.0]hex-3-yl}propyl)-2,4(1H,3H)-pyrimidinedione dihydrocholoride]
12 | no activity | Cc1nc(-c2cn(CCCN3C[C@@H]4C[C@]4(c4ccc(C(F)(F)F)cc4)C3)c(=O)[nH]c2=O)ccc1F.Cl.Cl [Example E39, 5-(5-fluoro-6-methyl-2-pyridinyl)-1-(3-{(1S,5R)-1-[4-(trifluoromethyl)phenyl]-3-azabicyclo[3.1.0]hex-3-yl}propyl)-2,4(1H,3H)-pyrimidinedione dihydrochloride]
13 | no activity | Cc1ncccc1-c1cn(CCCCN2C[C@@H]3C[C@]3(c3ccc(C(F)(F)F)cc3)C2)c(=O)[nH]c1=O.Cl.Cl [Example E29, 5-(2-methyl-3-pyridinyl)-1-(4-{(1S,5R)-1-[4-(trifluoromethyl)phenyl]-3-azabicyclo[3.1.0]hex-3-yl}butyl)-2,4(1H,3H)-pyrimidinedione dihydrochloride]
14 | no activity | Cl.O=c1[nH]c(=O)n(CCCN2C[C@@H]3C[C@]3(c3ccc(C(F)(F)F)cc3)C2)cc1-c1cccnn1 [Example E26, 5-(3-pyridazinyl)-1-(3-{(1S,5R)-1-[4-(trifluoromethyl)phenyl]-3-azabicyclo[3.1.0]hex-3-yl}propyl)-2,4(1H,3H)-pyrimidinedione hydrochloride]
15 | no activity | Cc1ccccc1-c1cn(CCCN2C[C@@H]3C[C@]3(c3ccc(C(F)(F)F)cc3)C2)c(=O)[nH]c1=O.Cl [Example E31, 5-(2-methylphenyl)-1-(3-{(1S,5R)-1-[4-(trifluoromethyl)phenyl]-3-azabicyclo[3.1.0]hex-3-yl}propyl)-2,4(1H,3H)-pyrimidinedione hydrochloride]
16 | no activity | Cl.Cl.O=c1[nH]c(=O)n(CCCN2C[C@@H]3C[C@]3(c3ccc(C(F)(F)F)cc3F)C2)cc1-c1cccnc1F [Example E48, 5-(2-fluoro-3-pyridinyl)-1-(3-{(1S,5R)-1-[2-fluoro-4-(trifluoromethyl)phenyl]-3-azabicyclo[3.1.0]hex-3-yl}propyl)-2,4(1H,3H)-pyrimidinedione dihydrochloride]
17 | no activity | Cl.N#Cc1cn(CCCCN2C[C@@H]3C[C@]3(c3ccc(C(F)(F)F)cc3)C2)c(=O)[nH]c1=O [Example E18, 2,4-dioxo-1-(4-{(1S,5R)-1-[4-(trifluoromethyl)phenyl]-3-azabicyclo[3.1.0]hex-3-yl}butyl)-1,2,3,4-tetrahydro-5-pyrimidinecarbonitrile hydrochloride]
18 | no activity | Cl.Cl.O=c1[nH]c(=O)n(CCCN2C[C@@H]3C[C@]3(c3ccc(C(F)(F)F)cc3)C2)cc1-c1ccc(F)nc1 [Example E20, 5-(6-fluoro-3-pyridinyl)-1-(3-{(1S,5R)-1-[4-(trifluoromethyl)phenyl]-3-azabicyclo[3.1.0]hex-3-yl}propyl)-2,4(1H,3H)-pyrimidinedione dihydrochloride]
19 | no activity | Cc1ccncc1-c1cn(CCCN2C[C@@H]3C[C@]3(c3ccc(C(F)(F)F)cc3)C2)c(=O)[nH]c1=O.Cl.Cl [Example E64, 5-(4-methyl-3-pyridinyl)-1-(3-{(1S,5R)-1-[4-(trifluoromethyl)phenyl]-3-azabicyclo[3.1.0]hex-3-yl}propyl)-2,4(1H,3H)-pyrimidinedione dihydrochloride]
20 | no activity | Cl.O=c1[nH]c(=O)n(CCCN2C[C@@H]3C[C@]3(c3ccc(C(F)(F)F)cc3)C2)cc1C(F)(F)F [Example E13, 5-(trifluoromethyl)-1-(3-{(1S,5R)-1-[4-(trifluoromethyl)phenyl]-3-azabicyclo[3.1.0]hex-3-yl}propyl)-2,4(1H,3H)-pyrimidinedione hydrochloride]
